Values of other authors as cited in US20120058097A1, “COMPOSITIONS INCLUDING A SODIUM CHANNEL BLOCKER AND A B VITAMIN MOLECULE AND METHODS OF USE THEREOF” (MS THERAPEUTICS LIMITED, priority 2010, published 2012).

Tests used:
[1] = test system: people with secondary progressive multiple sclerosis
[2] = in vivo

Nc1nnc(-c2cccc(Cl)c2Cl)c(N)n1 [lamotrigine, 3,5-diamino-6-(2,3-dichlorophenyl)-1,2,4-triaz-ine]
deterioration of walking speed ([1]; compared to the control group, 120 people with secondary progressive multiple sclerosis): approximately halve the deterioration of walking speed | MRI measurements of brain volume ([1]; primary outcome measure, 2 year trial): early reduction in brain volume which was reversible over the 2 year course of the trial | half life [2]: 23 to 36 h
